Reference: US20080125427A1, “Novel Inhibitors of Rho-Kinases” (SMITHKLINE BEECHAM CORPORATION, priority 2004, published 2008)

Target: T1, human recombinant ROCK1 kinase domain (amino acid 2-543) (Homo sapiens, UniProt Q13464)
T1 construct: human recombinant ROCK1 kinase domain (amino acid 2-543); His-tag; made in house; host or cells: Sf9 insect cells
Assay: ROCK Kinase Assay (SPA, P33 incorporation into peptide substrate)
Assay type: biochemical
Conditions: 1 nM hROCK1, 1 uM ATP; eleven point dilution range, 50 uM to 0.8 nM or 10 uM to 0.8 nM (Example 98: 10 uM to 0.8 nM)
Experimental: ROCK inhibitor activity was determined using human recombinant ROCK1 kinase domain (amino acid 2-543) expressed in Sf9 cells (see WO9967283). The enzyme was purified using His-tag NTA column and Source15 HPLC chromatography. The assay of Rock-1 activity involved incubation with peptide substrate and ATP^33, the subsequent incorporation of P^33 into the peptide was quantified by Scintillation Proximity Assay (SPA—Amersham Pharmacia).
For IC50 determination, test compounds were typically dissolved at 10 mM in 100% DMSO, with subsequent serial dilution in 100% DMSO. Compounds were typically assayed over an eleven point dilution range with a concentration in the assay of 50 uM to 0.8 nM, in 3-fold dilutions. IC50 values were calculated by bespoke curve fitting software and then converted to pIC50. In some cases, compounds were assayed over an eleven point dilution range with a concentration in the assay of 10 uM to 0.8 nM, in 3-fold dilutions. […]
Assays were performed in opaque, white walled, 384 well plates, in a total assay volume of 20 ul. […] P^33 incorporation was quantified by scintillation counting in a Packard TopCount. When the reaction was terminated by addition of a 10 ul solution, P33 incorporation was quantified by luminescence detection using a Perkin-Elmer Viewlux ultraHTS microplate imager.

T1 sequence (Q13464 2-543): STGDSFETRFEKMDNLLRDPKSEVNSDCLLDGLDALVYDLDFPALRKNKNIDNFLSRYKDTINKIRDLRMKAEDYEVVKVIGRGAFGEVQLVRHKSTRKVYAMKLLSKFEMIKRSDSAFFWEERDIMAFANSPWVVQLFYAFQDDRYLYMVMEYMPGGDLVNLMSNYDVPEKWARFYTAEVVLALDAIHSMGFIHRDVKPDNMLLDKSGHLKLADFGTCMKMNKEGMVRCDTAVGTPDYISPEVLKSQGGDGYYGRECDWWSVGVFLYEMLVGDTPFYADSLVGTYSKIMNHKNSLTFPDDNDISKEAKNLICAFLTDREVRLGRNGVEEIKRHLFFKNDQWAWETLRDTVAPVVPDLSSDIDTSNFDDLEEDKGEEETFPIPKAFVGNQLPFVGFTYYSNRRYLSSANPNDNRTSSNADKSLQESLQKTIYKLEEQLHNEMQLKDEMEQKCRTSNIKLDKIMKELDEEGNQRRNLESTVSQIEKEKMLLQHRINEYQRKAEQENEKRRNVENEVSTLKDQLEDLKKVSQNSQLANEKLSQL

activity in the ROCK kinase assay: not active
Structure (SMILES): CC1=C(C(=O)Nc2cc3cn[nH]c3cc2F)C(c2ccc(Cl)cc2F)N=C(c2ccnc(Cl)c2)N1C (stereo not shown) [Example 98, 4-(4-chloro-2-fluorophenyl)-2-(2-chloro-4-pyridinyl)-N-(6-fluoro-1H-indazol-5-yl)-1,6-dimethyl-1,4-dihydro-5-pyrimidinecarboxamide]
